The target in one data set is human Factor XIa (Homo sapiens (Human), UniProt P03951). The experiment in a line: Factor XIa Assay. Conditions: human Factor XIa 0.04 nM, 30 min pre-incubation at 25° C., substrate GPR-AFC; read-out: FXIa IC50. The format is biochemical. The procedure, abridged:
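IC50 values were obtained from four-parameter log(inhibitor)-response fits of % inhibition, then converted to Ki using Cheng-Prusoff. GPR-AFC hydrolysis was read at 400/505 nm after 60 min at 25 °C.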

For the next data set, the target named is Human plasma kallikrein (Homo sapiens (Human), UniProt P03952). The experiment in a line: Kallikrein Assay. Conditions: purified Human plasma kallikrein 0.5 nM, substrate Acetyl-K-P-R-AFC; read-out: P. KLK IC50. In kind it is biochemical. The procedure, abridged:
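Purified human plasma kallikrein (0.5 nM final) with Acetyl-K-P-R-AFC substrate ([…]) in pH 7.4 HEPES/NaCl/CaCl2/PEG buffer, room temperature or 37 °C; fluorescence rise read at 405/510 nm under linear conditions after enzyme–inhibitor equilibration. IC50 from four-parameter logistic fit; Ki via Cheng–Prusoff.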

Data set [1] can be described thus: Rat Pharmacokinetic Screening IV/PO. The format is in vivo. Conditions: male; for clearance: plasma clearance, IV administration; for MRT / bioavailability: plasma; for MRT: mean residence time; for bioavailability: oral bioavailability, oral vs. IV dosing. On the procedure: Plasma pharmacokinetic parameters for clearance (Cl), volume of distribution, mean residence time (MRT) and oral bioavailability (% F) were determined in rats from oral administration and IV administration studies. 4 male rats, typically weighing 225-260 gram, were fasted overnight prior to dosing. Compounds were prepared for oral and IV dosing by addition to a vehicle, depending on the dose used. For a typical preparation, 1 mg per mL (IV) or 1.5 mg per mL (oral) of test compound was added to vehicle comprised of 20% dimethyl sulfoxide (DMSO), 60% polyethylene glycol 400 (PEG400) and 20% water. IV formulation was administered to 2 rats via pre-cannulated jugular vein, and oral dosing was administered to 2 rats via oral gavage. Blood was collected by pre-cannulated artery, typically at predose, 2, 8, 15, 30 min, 1, 2, 4, 6, and 8 hr postdose for IV, and at predose, 15, 30 min, 1, 2, 4, 6, 8 hr for oral dosing. Samples were collected in K2EDTA tubes, stored on ice, and centrifuged. Plasma was transferred to a micro titer plate and stored at −70° C. until analysis. Plasma samples were extracted using protein precipitation and analyzed by liquid chromatography separation followed by mass spec detection (LC-MS/MS), using a standard curve for each compound. Plasma pharmacokinetic parameters were calculated for IV and oral dosing data by non-compartmental methods. Oral bioavailability was determined as the ratio of the dose-normalized plasma area under the curve (AUC) following oral dosing vs. IV dosing.

Data set [2] concerns Human plasma (intrinsic coagulation cascade). The experiment in a line: Activated Partial Thromboplastin Time (aPTT) Assay. As to conditions: concentration that causes a 50% (1.5×) increase of clot time over vehicle. The procedure, abridged:
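Inhibitors spiked into pooled citrated normal-donor human plasma (aPTT 28-40 seconds), run on automated coagulation analyzer: ellagic acid activation of Factor XII, then clot time after recalcification. Reported as concentration giving 50% (1.5×) prolongation over vehicle clot time.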

Usually IC50 stands for the midpoint of a concentration-inhibition curve. As a reminder, the MRT is the average time that molecules of a dose stay in the body. For orientation: bioavailability means the share of a dose that reaches the circulation, judged against a reference dose that is usually intravenous. Low readings indicate poor availability, high ones good availability.

Human plasma kallikrein, sequence (P03952 391-638): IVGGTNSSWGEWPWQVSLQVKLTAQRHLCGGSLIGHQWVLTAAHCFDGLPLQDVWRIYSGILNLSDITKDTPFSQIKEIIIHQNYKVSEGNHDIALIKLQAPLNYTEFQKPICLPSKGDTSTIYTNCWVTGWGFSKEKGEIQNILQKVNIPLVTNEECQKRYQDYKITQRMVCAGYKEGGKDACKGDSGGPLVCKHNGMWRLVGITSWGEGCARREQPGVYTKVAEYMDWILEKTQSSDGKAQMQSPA
Human plasma kallikrein, sequence (P03952 20-390 partner): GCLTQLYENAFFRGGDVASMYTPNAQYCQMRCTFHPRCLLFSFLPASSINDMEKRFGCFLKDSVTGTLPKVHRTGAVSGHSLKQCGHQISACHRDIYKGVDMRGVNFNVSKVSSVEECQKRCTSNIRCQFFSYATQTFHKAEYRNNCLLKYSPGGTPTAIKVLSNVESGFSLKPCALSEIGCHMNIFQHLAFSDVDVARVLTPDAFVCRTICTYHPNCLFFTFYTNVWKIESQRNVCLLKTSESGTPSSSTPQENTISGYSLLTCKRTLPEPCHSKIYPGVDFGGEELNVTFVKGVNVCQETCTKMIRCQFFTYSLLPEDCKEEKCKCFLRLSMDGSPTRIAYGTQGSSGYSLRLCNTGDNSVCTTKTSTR
human Factor XIa, sequence (P03951 388-625): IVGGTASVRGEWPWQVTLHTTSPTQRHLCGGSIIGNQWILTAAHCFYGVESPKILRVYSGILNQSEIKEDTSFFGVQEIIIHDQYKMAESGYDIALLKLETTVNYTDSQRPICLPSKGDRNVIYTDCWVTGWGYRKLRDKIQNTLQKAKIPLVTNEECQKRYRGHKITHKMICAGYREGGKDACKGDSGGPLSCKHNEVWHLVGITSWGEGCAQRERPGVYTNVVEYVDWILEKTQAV
human Factor XIa, sequence (P03951 19-387 partner): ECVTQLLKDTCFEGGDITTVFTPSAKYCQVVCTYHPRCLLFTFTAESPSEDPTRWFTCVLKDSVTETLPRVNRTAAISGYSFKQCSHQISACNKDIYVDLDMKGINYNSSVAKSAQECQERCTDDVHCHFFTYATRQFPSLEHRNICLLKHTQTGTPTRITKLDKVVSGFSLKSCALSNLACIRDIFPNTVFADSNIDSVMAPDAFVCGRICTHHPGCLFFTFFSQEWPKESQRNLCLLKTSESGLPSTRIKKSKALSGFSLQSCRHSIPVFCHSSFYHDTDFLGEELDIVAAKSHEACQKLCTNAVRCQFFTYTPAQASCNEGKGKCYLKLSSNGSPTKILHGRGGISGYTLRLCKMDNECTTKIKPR

Regarding `O=C(O)c1ccc(NC(=O)[C@H](CC2CCC2)c2ccc(-c3c(C(F)F)ccc(Cl)c3F)c[n+]2[O-])cc1` (mixture of isomers) [Example 4, (S)- and (R)-2-(1-((4-Carboxyphenyl)amino)-3-cyclobutyl-1-oxopropan-2-yl)-5-(3-chloro-6-(difluoromethyl)-2-fluorophenyl)pyridine 1-oxide], the IC50 on human Factor XIa was 0.36 nM. For the same compound, the IC50 on Human plasma kallikrein was determined as 4.7 nM. In data set [1], the clearance is 5.1 mL/min/kg, the MRT is 2.5 h and the bioavailability was 34%.

Take `O=C(O)c1ccc(NC(=O)[C@H](CC2CC2)c2ccc(-c3c(C(F)F)ccc(Cl)c3F)c[n+]2[O-])cc1` (mixture of isomers) [Example 23, (S)- and (R)-2-(1-((4-carboxyphenyl)amino)-3-cyclopropyl-1-oxopropan-2-yl)-5-(3-chloro-6-(difluoromethyl)-2-fluorophenyl)pyridine 1-oxide]: at human Factor XIa, the IC50 came out at 0.9 nM. Also, the IC50 at Human plasma kallikrein was 22 nM. In addition, in data set [1], the clearance was 1.9 mL/min/kg, the MRT was found to be 2.9 h and the bioavailability amounted to 89%.

As for `O=C(O)c1ccc(NC(=O)[C@H](CC2CC2)c2ccc(-c3c(OC(F)F)ccc(Cl)c3F)c[n+]2[O-])cc1` (single isomer, unassigned) [Example 2], in data set [2], the “aPTT (1.5x)” value came out at 1.16 µM. The IC50 at Human plasma kallikrein was determined as 79 nM. Also, in data set [1], the clearance turned out to be 5 mL/min/kg, the MRT was found to be 2.5 h and the bioavailability came to 56%.

For `C[C@H]1C[C@@H]1C[C@@H](C(=O)Nc1ccc(C(=O)O)cc1)c1ccc(-c2c(OC(F)F)ccc(Cl)c2F)c[n+]1[O-]` (single isomer, unassigned) [Example 55], the IC50 on human Factor XIa amounted to 0.38 nM. In data set [2], the “aPTT (1.5x)” value turned out to be 0.53 µM. Moreover, in data set [1], the clearance is 4.3 mL/min/kg, the MRT is 2.6 h and the bioavailability came out at 63%.

For `O=C(O)c1ccc(NC(=O)C(CC2CC2(F)F)c2ccc(-c3c(C(F)F)ccc(Cl)c3F)c[n+]2[O-])cc1` (single isomer, unassigned) [Example 76, 2-(1-((4-carboxyphenyl)amino)-3-(2,2-difluorocyclopropyl)-1-oxopropan-2-yl)-5-(3-chloro-6-(difluoromethyl)-2-fluorophenyl)pyridine 1-oxide], the “aPTT (1.5x)” value in data set [2] worked out at 0.72 µM. Also, the IC50 at Human plasma kallikrein came out at 14.5 nM. In data set [1], this compound displayed a clearance of 12.1 mL/min/kg, an MRT of 2.3 h and a bioavailability of 70%.

Take `O=C(O)c1ccc(NC(=O)C(CC2CC2C(F)(F)F)c2ccc(-c3c(OC(F)F)ccc(Cl)c3F)c[n+]2[O-])cc1` (single isomer, unassigned) [Example 109, 2-(1-((4-carboxyphenyl)amino)-1-oxo-3-(2-(trifluoromethyl)cyclopropyl)propan-2-yl)-5-(3-chloro-6-(difluoromethoxy)-2-fluorophenyl)pyridine 1-oxide]: the IC50 at human Factor XIa was found to be 1.2 nM; at Human plasma kallikrein, 25.2 nM. For the same compound, in data set [2], the “aPTT (1.5x)” value turned out to be 0.76 µM.

`CC1(C)CC1CC(C(=O)Nc1ccc(C(=O)O)cc1)c1ccc(-c2c(OC(F)F)ccc(Cl)c2F)c[n+]1[O-]` (single isomer, unassigned) [Example 112, 2-(1-((4-carboxyphenyl)amino)-3-(2,2-dimethylcyclopropyl)-1-oxopropan-2-yl)-5-(3-chloro-6-(difluoromethoxy)-2-fluorophenyl)pyridine 1-oxide]: the IC50 at human Factor XIa stood at 0.4 nM; on Human plasma kallikrein it was 21.3 nM. The “aPTT (1.5x)” value in data set [2] worked out at 2.21 µM.

`O=C(O)c1ccc(NC(=O)[C@H](CC2CC2)c2ccc(-c3c(OCC4CC4)ccc(Cl)c3F)c[n+]2[O-])cc1` [Example 13, (R)-4-[(2-{5-[3-chloro-6-(cyclopropylmethoxy)-2-fluorophenyl]-1-oxidopyridin-2-yl}-3-cyclopropylpropanoyl)amino] benzoic acid]: the IC50 was 6.9 nM at human Factor XIa and 984 nM at Human plasma kallikrein. Besides, the “aPTT (1.5x)” value in data set [2] was 11.1 µM.

Values taken from patent publication US10143681B2, “Factor XIa inhibitors” (MERCK SHARP & DOHME CORP., priority 2016, dated 2018).
